pEC50, pKi: −log10 of the molar value. Active and inactive are the calls of the source. The calls are words filed in the database; no cut-off is given here.
What was measured:
[1] = target: T1, 5-hydroxytryptamine receptor 2B (Homo sapiens, UniProt P41595); assay: Displacement of [3H]LSD from human 5-HT2B receptor expressed in HEK293 cell membrane incubated for 90 mins by microbeta liquid scintillation counting method; type: cell membranes
Homo sapiens = organism: Homo sapiens; assay: Selectivity ratio, ratio of Ki for human 5-HT2B receptor to human 5-HT2C receptor
[2] = target: 5-hydroxytryptamine receptor 1B (Homo sapiens, UniProt P28222); assay: Displacement of [3H]GR125743 from 5-HT1B receptor (unknown origin) assessed as inhibition binding at 10 uM relative to control
5-hydroxytryptamine receptor 1B, sequence (P28222 whole entry): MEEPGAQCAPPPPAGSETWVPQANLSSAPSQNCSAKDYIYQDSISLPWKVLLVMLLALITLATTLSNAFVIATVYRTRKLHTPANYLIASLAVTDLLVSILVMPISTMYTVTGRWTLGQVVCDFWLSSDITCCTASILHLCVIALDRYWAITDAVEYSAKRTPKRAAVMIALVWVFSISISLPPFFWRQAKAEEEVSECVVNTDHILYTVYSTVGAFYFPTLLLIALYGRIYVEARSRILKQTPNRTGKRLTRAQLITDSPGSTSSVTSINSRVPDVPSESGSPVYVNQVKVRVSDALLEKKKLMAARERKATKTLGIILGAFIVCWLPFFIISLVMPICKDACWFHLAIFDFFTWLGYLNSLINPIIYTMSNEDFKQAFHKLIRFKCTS

[3] = target: 5-hydroxytryptamine receptor 6 (Homo sapiens, UniProt P50406); assay: Displacement of [3H]LSD from 5-HT6 receptor (unknown origin) assessed as inhibition binding
5-hydroxytryptamine receptor 6, sequence (P50406 whole entry): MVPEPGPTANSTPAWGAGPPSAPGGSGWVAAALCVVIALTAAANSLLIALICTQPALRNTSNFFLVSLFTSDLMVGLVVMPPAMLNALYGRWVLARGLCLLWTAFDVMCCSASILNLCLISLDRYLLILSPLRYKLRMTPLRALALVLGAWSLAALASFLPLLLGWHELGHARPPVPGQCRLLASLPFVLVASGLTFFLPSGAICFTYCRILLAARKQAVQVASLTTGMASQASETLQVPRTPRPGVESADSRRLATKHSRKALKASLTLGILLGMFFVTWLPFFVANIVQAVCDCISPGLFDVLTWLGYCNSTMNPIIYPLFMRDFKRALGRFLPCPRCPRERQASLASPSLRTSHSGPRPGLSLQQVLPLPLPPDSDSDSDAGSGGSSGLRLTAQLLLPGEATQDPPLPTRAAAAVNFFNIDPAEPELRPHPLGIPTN

[4] = target: 5-hydroxytryptamine receptor 7 (Homo sapiens, UniProt P34969); assay: Displacement of [3H]LSD from 5-HT7 receptor (unknown origin) assessed as inhibition binding
5-hydroxytryptamine receptor 7, sequence (P34969 whole entry): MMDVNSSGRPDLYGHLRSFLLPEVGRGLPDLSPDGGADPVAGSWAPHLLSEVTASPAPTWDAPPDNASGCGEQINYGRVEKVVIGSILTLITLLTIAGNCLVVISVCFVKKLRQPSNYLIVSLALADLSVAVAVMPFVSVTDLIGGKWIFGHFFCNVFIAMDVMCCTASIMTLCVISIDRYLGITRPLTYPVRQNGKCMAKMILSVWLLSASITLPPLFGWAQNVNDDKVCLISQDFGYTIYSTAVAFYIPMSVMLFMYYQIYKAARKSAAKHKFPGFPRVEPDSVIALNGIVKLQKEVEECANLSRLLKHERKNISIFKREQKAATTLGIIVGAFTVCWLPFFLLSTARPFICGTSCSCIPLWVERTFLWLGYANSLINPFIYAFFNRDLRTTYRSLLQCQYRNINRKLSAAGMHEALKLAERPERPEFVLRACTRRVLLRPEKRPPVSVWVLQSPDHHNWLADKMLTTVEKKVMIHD

[5] = target: T1, 5-hydroxytryptamine receptor 2B; assay: Agonist activity at human 5-HT2B receptor expressed in CHO cells assessed as IP2 production measured after 30 mins incubation by HTRF assay; type: functional, cell-based
[6] = target: 5-hydroxytryptamine receptor 2C (Homo sapiens) (UniProt P28335); assay: Agonist activity at human 5-HT2C receptor expressed in HEK293 cells assessed as maximal IP2 production measured after 30 mins incubation by HTRF assay relative to control; type: functional, cell-based; conditions: filed as agonist
5-hydroxytryptamine receptor 2C (Homo sapiens), sequence (P28335 whole entry): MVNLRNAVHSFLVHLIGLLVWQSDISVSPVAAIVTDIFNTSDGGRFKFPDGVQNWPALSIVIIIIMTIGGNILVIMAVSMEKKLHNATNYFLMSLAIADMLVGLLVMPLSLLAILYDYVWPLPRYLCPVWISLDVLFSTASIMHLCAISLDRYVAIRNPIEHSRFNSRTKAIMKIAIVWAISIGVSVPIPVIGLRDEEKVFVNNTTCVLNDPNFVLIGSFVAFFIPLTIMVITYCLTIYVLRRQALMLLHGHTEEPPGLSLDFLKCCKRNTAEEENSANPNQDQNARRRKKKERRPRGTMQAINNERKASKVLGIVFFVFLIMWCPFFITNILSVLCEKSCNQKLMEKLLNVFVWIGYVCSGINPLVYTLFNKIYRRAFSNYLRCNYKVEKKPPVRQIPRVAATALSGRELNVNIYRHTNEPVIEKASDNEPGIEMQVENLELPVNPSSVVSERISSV

[7] = target: Voltage-dependent L-type calcium channel subunit alpha-1C (Homo sapiens, UniProt Q13936); assay: Binding affinity to human Calcium channel L-type (verapamil site) at 10 uM measured after 180 mins by [3H]D888-Radiometric assay relative to control
Voltage-dependent L-type calcium channel subunit alpha-1C, sequence (Q13936 whole entry): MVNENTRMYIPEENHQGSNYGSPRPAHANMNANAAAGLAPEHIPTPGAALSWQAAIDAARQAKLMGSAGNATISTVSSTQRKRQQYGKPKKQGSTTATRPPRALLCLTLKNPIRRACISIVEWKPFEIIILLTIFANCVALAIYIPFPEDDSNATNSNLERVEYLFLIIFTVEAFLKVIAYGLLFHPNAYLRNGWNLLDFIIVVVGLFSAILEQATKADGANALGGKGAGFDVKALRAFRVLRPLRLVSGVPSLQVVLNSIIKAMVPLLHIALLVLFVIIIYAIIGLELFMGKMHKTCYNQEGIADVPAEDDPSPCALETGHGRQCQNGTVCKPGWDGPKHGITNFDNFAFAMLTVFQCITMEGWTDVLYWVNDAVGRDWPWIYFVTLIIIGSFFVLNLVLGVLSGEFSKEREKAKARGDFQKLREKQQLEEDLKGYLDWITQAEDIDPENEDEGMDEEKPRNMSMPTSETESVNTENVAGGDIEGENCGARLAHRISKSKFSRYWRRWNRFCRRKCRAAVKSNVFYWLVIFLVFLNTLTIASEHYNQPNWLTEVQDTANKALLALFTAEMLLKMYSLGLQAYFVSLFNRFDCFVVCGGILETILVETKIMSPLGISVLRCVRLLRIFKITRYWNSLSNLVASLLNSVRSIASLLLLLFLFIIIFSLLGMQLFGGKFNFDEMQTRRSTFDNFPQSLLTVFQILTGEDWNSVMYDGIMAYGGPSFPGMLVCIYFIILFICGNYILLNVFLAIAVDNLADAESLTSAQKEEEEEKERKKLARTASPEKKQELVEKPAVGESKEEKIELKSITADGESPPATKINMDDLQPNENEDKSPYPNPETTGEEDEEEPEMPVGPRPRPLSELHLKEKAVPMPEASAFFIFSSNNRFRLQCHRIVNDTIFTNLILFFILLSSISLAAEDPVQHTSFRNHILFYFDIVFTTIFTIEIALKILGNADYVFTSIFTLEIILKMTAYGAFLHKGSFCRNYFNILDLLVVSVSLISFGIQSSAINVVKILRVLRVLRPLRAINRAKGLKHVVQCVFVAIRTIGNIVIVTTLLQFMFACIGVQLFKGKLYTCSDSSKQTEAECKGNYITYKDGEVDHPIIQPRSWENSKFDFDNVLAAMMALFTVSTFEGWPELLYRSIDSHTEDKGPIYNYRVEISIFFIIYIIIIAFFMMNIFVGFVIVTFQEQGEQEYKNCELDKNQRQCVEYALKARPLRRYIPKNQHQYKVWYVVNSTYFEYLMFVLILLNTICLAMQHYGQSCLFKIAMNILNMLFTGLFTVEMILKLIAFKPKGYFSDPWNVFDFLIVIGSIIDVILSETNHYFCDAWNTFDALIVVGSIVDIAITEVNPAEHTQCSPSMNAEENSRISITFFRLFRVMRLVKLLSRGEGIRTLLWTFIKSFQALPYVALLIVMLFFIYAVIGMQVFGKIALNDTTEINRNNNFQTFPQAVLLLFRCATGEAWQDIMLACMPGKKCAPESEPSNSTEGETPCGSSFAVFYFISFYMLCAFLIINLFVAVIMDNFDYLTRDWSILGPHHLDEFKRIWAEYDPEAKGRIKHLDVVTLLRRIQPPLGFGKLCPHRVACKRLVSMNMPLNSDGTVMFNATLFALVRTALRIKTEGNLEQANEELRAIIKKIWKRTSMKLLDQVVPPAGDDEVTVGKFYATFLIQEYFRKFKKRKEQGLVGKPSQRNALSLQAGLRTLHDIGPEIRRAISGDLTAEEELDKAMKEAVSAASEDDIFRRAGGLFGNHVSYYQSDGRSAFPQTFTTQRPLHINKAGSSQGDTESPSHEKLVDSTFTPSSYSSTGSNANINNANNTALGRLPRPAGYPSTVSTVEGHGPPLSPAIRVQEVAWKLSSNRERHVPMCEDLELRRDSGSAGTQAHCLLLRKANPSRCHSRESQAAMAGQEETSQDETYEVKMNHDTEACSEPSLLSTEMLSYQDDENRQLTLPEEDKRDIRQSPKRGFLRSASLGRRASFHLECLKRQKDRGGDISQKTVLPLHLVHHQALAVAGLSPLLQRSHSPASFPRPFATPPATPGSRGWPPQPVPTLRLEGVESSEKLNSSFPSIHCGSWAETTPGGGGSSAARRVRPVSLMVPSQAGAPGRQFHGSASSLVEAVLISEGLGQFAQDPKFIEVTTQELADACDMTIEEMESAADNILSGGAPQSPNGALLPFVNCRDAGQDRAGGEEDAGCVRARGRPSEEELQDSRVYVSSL

[8] = target: Alpha-2A adrenergic receptor (Homo sapiens) (UniProt P08913); assay: Agonist activity at human recombinant adrenergic alpha-2A receptor expressed in CHO-K1 cells co-transfected with 22F-Glosensor assessed as maximal inhibition of cAMP production measured after 30 mins incubation by Microbeta2Micro-plate counter analysis relative to clonidine; type: functional, cell-based; conditions: filed as agonist
Alpha-2A adrenergic receptor (Homo sapiens), sequence (P08913 whole entry): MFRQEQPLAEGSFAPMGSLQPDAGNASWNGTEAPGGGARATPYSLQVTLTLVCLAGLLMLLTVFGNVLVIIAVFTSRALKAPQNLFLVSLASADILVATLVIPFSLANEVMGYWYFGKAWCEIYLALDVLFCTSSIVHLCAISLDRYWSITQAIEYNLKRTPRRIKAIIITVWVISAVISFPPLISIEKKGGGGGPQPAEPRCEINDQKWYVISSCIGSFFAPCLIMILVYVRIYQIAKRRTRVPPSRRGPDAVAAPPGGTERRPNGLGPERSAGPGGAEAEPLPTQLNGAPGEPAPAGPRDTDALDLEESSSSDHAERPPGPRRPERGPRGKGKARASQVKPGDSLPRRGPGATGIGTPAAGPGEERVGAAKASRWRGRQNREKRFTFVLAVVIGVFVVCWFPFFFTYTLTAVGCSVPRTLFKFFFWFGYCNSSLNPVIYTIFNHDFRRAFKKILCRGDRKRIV

Mus musculus [9] = assay: Psychedelic effect in C57BL/6J mouse assessed as maximal number of 5-HT2A receptor dependent head-twitch responses by visual observation at 1 mg/kg, sc (reference value: 3); type: functional
Mus musculus [10] = assay: Psychedelic effect in C57BL/6J mouse assessed as induction of 5-HT2A receptor dependent maximal head-twitch responses by visual observation at 1 mg/kg, sc at 100 mins; type: functional, organism-based
Mus musculus [11] = assay: Psychedelic effect in C57BL/6J mouse assessed as induction of 5-HT2A receptor dependent head-twitch responses by visual observation at 1 to 10 mg/kg, po measured for 120 to 150 mins relative to DOI; type: functional, organism-based; conditions: dose 1-10 mg/kg, time lower […], time upper 150.0 min
Mus musculus [12] = assay: Locomotor activity in C57BL/6J mouse assessed as distance traveled at 1 mg/kg, po measured for 15 to 25 mins (reference value: 1710 +/- 120 cm) by Ethovision tracking system; type: functional; conditions: time 15-25 min
Mus musculus [13] = assay: Locomotor activity in C57BL/6J mouse assessed as distance traveled at 3 mg/kg, po measured for 15 to 25 mins (reference value: 1710 +/- 120 cm) by Ethovision tracking system; type: functional; conditions: time 15-25 min
Mus musculus [14] = assay: Psychedelic effect in C57BL/6J mouse assessed as development of tolerance/ tachyphylaxis at 0.3 mg/kg, sc measured on day 4 by head-twitch responses test; type: functional, organism-based; conditions: time 4.0 day
Mus musculus [15] = assay: Psychedelic effect in C57BL/6J mouse assessed as head-twitch responses reversibility by visual observation at 3 mg/kg, sc once a day for 3 days following treatment free for 48 hrs followed by redosed at 3 mg/kg, sc; type: functional, organism-based; conditions: time 3.0 day
[16] = Ex vivo binding in C57BL/6J mouse brain frontal cortex assessed as specific binding [3H]Cimbi-36 at 1 mg/kg, sc measured after 10 mins by liquid scintillation counting analysis (reference value: 1092 +/- 53); type: functional
[17] = Ex vivo binding in C57BL/6J mouse brain frontal cortex assessed as inhibition of [3H]Cimbi-36 binding at 1 mg/kg, sc measured after 10 mins by liquid scintillation counting analysis (reference value: 0%); type: functional
[18] = Ex vivo binding in C57BL/6J mouse brain frontal cortex assessed as inhibition of [3H]Cimbi-36 binding at 1 mg/kg, sc measured after 100 mins by liquid scintillation counting analysis (reference value: 0%); type: functional; conditions: 1.667 h
Mus musculus [19] = assay: Induction of neuroplasticity in C57BL/6J mouse assessed as increase in EGR2 mRNA expression in brain frontal cortex at 3 mg/kg, sc single dose by RT-PCR analysis; type: functional, organism-based
Hippocampus [20] = assay: Induction of neuroplasticity in C57BL/6J mouse assessed as increase in mTOR mRNA expression in brain hippocampus at 3 mg/kg, sc single dose by RT-PCR analysis; type: functional, organism-based
Hippocampus [21] = assay: Induction of neuroplasticity in C57BL/6J mouse assessed as increase in IGF1 mRNA expression in brain hippocampus at 3 mg/kg, sc single dose by RT-PCR analysis; type: functional, organism-based
Hippocampus [22] = assay: Induction of neuroplasticity in C57BL/6J mouse assessed as increase in Homer1 mRNA expression in brain hippocampus at 0.3 mg/kg, sc single dose by RT-PCR analysis; type: functional, organism-based
[23] = Metabolic stability in human liver microsomes assessed as half life at 1 uM incubated for 120 mins in presence of NADPH; type: ADME, Microsome
[24] = Metabolic stability in mouse liver microsomes assessed as half life at 1 uM incubated for 120 mins in presence of NADPH; type: ADME, Microsome
[25] = Metabolic stability in rat hepatocytes assessed as half life at 10 uM; type: ADME, cell-based, Hepatocyte
[26] = Drug metabolism in rat hepatocytes assessed as formation of sulfoxide with N-acetylation/0-glucuronidations metabolites at 10 uM by HRAMS analysis; type: ADME, cell-based, Hepatocyte
[27] = Tmax in Wistar rat plasma at 5 mg/kg, po measured upto 48 hrs; type: ADME, organism-based
[28] = AUClast in Wistar rat plasma at 5 mg/kg, po measured upto 48 hrs; type: ADME, organism-based
[29] = MRTlast in Wistar rat plasma at 5 mg/kg, po measured upto 48 hrs; type: ADME, organism-based
[30] = Cmax in Wistar rat brain at 5 mg/kg, po measured upto 48 hrs; type: ADME, organism-based
[31] = AUCinf in Wistar rat brain at 5 mg/kg, po measured upto 48 hrs; type: ADME, organism-based
[32] = Brain to plasma ratio in Wistar rat at 5 mg/kg, po measured upto 48 hrs; type: ADME, organism-based; conditions: brain and plasma, read-out: BPR
[33] = Cmax in male Sprague-Dawley rat plasma at 1 mg/kg, iv measured upto 8 hrs by LC-MS/MS analysis; type: ADME, organism-based
[34] = Cmax in male Sprague-Dawley rat brain at 1 mg/kg, iv measured upto 8 hrs by LC-MS/MS analysis; type: ADME, organism-based
[35] = Unbound concentration in male Sprague-Dawley rat brain homogenate at 1 mg/kg, iv measured upto 8 hrs by LC-MS/MS analysis; type: ADME, organism-based
[36] = MRTinf in beagle dog at 0.4 mg/kg, iv measured upto 24 hrs; type: ADME, organism-based, Canis lupus familiaris; conditions: in vivo
[37] = Cmax in beagle dog at 2 mg/kg, po measured upto 24 hrs; type: ADME, organism-based, Canis lupus familiaris; conditions: in vivo

T1 sequence (P41595 whole entry): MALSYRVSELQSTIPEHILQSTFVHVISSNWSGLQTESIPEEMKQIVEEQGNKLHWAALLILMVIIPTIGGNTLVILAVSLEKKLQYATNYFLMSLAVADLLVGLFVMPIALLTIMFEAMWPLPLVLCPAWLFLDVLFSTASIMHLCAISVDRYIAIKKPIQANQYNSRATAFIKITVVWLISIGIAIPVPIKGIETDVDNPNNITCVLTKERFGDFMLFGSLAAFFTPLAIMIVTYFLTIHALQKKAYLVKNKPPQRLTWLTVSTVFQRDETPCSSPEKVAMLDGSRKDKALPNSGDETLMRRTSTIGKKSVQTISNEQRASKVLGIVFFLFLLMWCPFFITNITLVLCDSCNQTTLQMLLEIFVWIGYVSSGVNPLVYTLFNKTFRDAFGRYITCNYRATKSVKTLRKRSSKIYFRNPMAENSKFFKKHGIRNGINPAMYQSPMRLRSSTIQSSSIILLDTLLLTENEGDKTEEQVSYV

Q: With `COc1cc([Se]C(F)(F)F)c(OC)cc1CCN.Cl` as the molecule, how does the pKi [1] read?
A: The pKi was 7.85.

Q: What about the Ratio Ki (Homo sapiens) of the same molecule?
A: Its Ratio Ki is 12.

Q: What about the inhibition [2] of the same molecule?
A: The inhibition was 83%.

Q: What about the pKi [3] of the same molecule?
A: Its pKi is 5.89.

Q: And the pKi [4]?
A: Its pKi is 5.31.

Q: What about the pEC50 [5] of the same molecule?
A: The pEC50 was 7.06.

Q: And the Emax [6]?
A: The Emax was 91%.

Q: What about the Activity [7] of the same molecule?
A: Its Activity is 85%.

Q: What about the Emax [8] of the same molecule?
A: The Emax was 56%.

Q: What about the Activity (Mus musculus [9]) of the same molecule?
A: Its Activity is 17.

Q: What about the Activity (Mus musculus [10]) of the same molecule?
A: The Activity was “Active”.

Q: What about the Activity (Mus musculus [11]) of the same molecule?
A: The Activity was “Active”.

Q: And the Activity (Mus musculus [12])?
A: The Activity was 2602 cm.

Q: What about the Activity (Mus musculus [13]) of the same molecule?
A: Its Activity is 3008 cm.

Q: And the Activity (Mus musculus [14])?
A: The Activity was “Active”.

Q: What about the Activity (Mus musculus [15]) of the same molecule?
A: Its Activity is “Active”.

Q: And the Activity [16]?
A: The Activity was 993.

Q: And the inhibition in vivo at 1 mg/kg [17]?
A: Its inhibition in vivo at 1 mg/kg is 9%.

Q: And the inhibition in vivo at 1 mg/kg [18]?
A: The inhibition in vivo at 1 mg/kg was 25%.

Q: What about the Activity (Mus musculus [19]) of the same molecule?
A: Its Activity is “Active”.

Q: And the Activity (Hippocampus [20])?
A: Its Activity is “inactive”.

Q: And the Activity (Hippocampus [21])?
A: Its Activity is “inactive”.

Q: And the Activity (Hippocampus [22])?
A: Its Activity is “inactive”.

Q: And the half-life at 1 µM [23]?
A: Its half-life at 1 µM is > 2 h.

Q: What about the half-life at 1 µM [24] of the same molecule?
A: The half-life at 1 µM was > 2 h.

Q: And the half-life at 10 µM [25]?
A: The half-life at 10 µM was 16 h.

Q: And the Drug metabolism [26]?
A: The Drug metabolism was “Metabolite_Detected”.

Q: What about the Tmax [27] of the same molecule?
A: The Tmax was 0.5 h.

Q: And the AUC(0-t) at 48 h [28]?
A: The AUC(0-t) at 48 h was 40.3 ng·h/mL.

Q: What about the MRT last at 48 h [29] of the same molecule?
A: Its MRT last at 48 h is 2.25 h.

Q: What about the Cmax [30] of the same molecule?
A: The Cmax was 402 ng/mL.

Q: What about the AUC(0-inf) [31] of the same molecule?
A: Its AUC(0-inf) is 2880 ng·h/mL.

Q: What about the Kp at 48 h [32] of the same molecule?
A: Its Kp at 48 h is 57.9.

Q: What about the Cmax [33] of the same molecule?
A: The Cmax was 250 ng/mL.

Q: And the Cmax [34]?
A: Its Cmax is 1490 ng/mL.

Q: What about the fraction unbound at 8 h [35] of the same molecule?
A: Its fraction unbound at 8 h is 0.014.

Q: What about the MRT inf [36] of the same molecule?
A: Its MRT inf is 5.58 h.

Q: What about the Cmax [37] of the same molecule?
A: Its Cmax is 263 ng/mL.

Reference: ChEMBL document CHEMBL5543140 (J Med Chem, 2024)
